Our source for the Ki values is ChEMBL document CHEMBL1156760, “Synthesis and biological evaluation of new nanomolar competitive inhibitors of Helicobacter pylori type II dehydroquinase. Structural details of the role of the aromatic moieties with essential residues” (J Med Chem, 2010).

This experiment deals with T1, 3-dehydroquinate dehydratase (Helicobacter pylori (strain ATCC 700392 / 26695) (Campylobacterpylori), UniProt Q48255).
T1 sequence (Q48255 whole entry): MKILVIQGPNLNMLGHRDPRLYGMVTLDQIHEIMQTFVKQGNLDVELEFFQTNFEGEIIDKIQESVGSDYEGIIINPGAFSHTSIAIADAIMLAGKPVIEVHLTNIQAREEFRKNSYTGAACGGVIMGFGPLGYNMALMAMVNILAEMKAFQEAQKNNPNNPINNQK
Nature of the experiment: Inhibition of Helicobacter pylori DHQ2 by UV spectroscopy.

Molecule `O=C(O)[C@]1(O)C=C(OCc2cc3ccccc3s2)[C@@H](O)[C@H](O)C1` had an inhibition constant Ki of 132 nM.
